Tested on: S. aureus ATCC 29213
Assay: NCCLS broth microdilution MIC
Assay type: cell-based, Staphylococcus aureus
Conditions: A = S. aureus ATCC 29213
Protocol: (§1) Compounds according to this invention were screened for their in vitro activities against selected species of bacteria and fungi. The minimal inhibition concentration (MIC) of these compounds was determined using the National Committee for Clinical Laboratory Standards (NCCLS) broth microdilution assay in microtiter plates, as set forth in: (1) the guidelines of the National Committee for Clinical Laboratory Standards (NCCLS) Document M7-A4 (NCCLS, 1997); (2) the guidelines of the National Committee for Clinical Laboratory Standards (NCCLS) Document M11-A4 (NCCLS, 1997); and (3) the guidelines and reference method of the National Committee for Clinical Laboratory Standards (NCCLS) Document M27-T (NCCLS, 1995). For antifungal essays, the method recommended in Murray, P R., 1995 Manual of Clinical Microbiology (ASM Press, Washington, D.C.), was employed. […]

Row | Structure (SMILES) | Minimum Inhibitory Concentration (MIC)
1 | Cn1cc(NC(=O)c2cc(NC(=O)CCNC(=O)c3cc(NC(=O)c4cc(NC(=O)c5cc(Br)c(Br)s5)cn4C)cn3C)cn2C)cc1C(=O)NCCC(=O)NCCCCN [Id-8] | >32 µg/mL
2 | Cn1cc(NC(=O)c2cc(NC(=O)CCNC(=O)c3cc(NC(=O)c4cc(NC(=O)c5cc(Br)c(Br)s5)cn4C)cn3C)cn2C)cc1C(=O)NCCC(=O)NCCCN [Id-9] | +++ (+++ = MIC ≦4)
3 | CN(C)CCN(C)C(=O)CCNC(=O)c1cc(NC(=O)c2cc(NC(=O)CCNC(=O)c3cc(NC(=O)c4cc(NC(=O)c5cc(Br)c(Br)s5)cn4C)cn3C)cn2C)cn1C [Id-10] | >32 µg/mL
4 | CCNCCNC(=O)CCNC(=O)c1cc(NC(=O)c2cc(NC(=O)CCNC(=O)c3cc(NC(=O)c4cc(NC(=O)c5cc(Br)c(Br)s5)cn4C)cn3C)cn2C)cn1C [Id-12] | +++ (+++ = MIC ≦4)
5 | CN(C)CCCNC(=O)CCNC(=O)c1cc(NC(=O)c2cc(NC(=O)CCNC(=O)c3cc(NC(=O)c4cc(NC(=O)c5sc(Br)c(Br)c5Cl)cn4C)cn3C)cn2C)cn1C [Id-26] | >32 µg/mL
6 | CN(C)CCCNC(=O)CCNC(=O)c1cc(NC(=O)c2cc(NC(=O)CCNC(=O)c3cc(NC(=O)c4cscc4Cl)cn3C)cn2C)cn1C [Id-28] | +++ (+++ = MIC ≦4)
7 | CN(C)CCCNC(=O)CCNC(=O)c1cc(NC(=O)c2cc(NC(=O)CCNC(=O)c3cc(NC(=O)c4ccc(Cl)s4)cn3C)cn2C)cn1C [Id-29] | >32 µg/mL
8 | Cn1cc(NC(=O)c2cc(NC(=O)c3cc(NC(=O)c4sccc4Br)cn3C)cn2C)cc1C(=O)NCCN1CCOCC1 [Ie-2] | +++ (+++ = MIC ≦4)
9 | Cn1cc(NC(=O)c2cc(NC(=O)c3cc(NC(=O)c4cc(Br)cs4)cn3C)cn2C)cc1C(=O)NCCN1CCOCC1 [Ie-3] | ++ (++ = MIC between 4 and 12)
10 | Cn1cc(NC(=O)c2cc(NC(=O)c3cc(NC(=O)c4sccc4Cl)cs3)cn2C)cc1C(=O)NCCN1CCOCC1 [Ig-1] | +++ (+++ = MIC ≦4)
11 | Cn1cc(NC(=O)c2cc(NC(=O)c3cc(NC(=O)c4sccc4Cl)cn3CCCO)cn2C)cc1C(=O)NCCC(=O)NCCN1CCOCC1 [Ig-2] | >32 µg/mL

Tested on: S. pneumoniae ATCC 49619
Assay: NCCLS broth microdilution MIC
Assay type: cell-based, Streptococcus pneumoniae
Conditions: F = S. pneumoniae ATCC 49619
Protocol: as §1

Row | Structure (SMILES) | Minimum Inhibitory Concentration (MIC)
12 | Cn1cc(NC(=O)c2cc(NC(=O)CCNC(=O)c3cc(NC(=O)c4cc(NC(=O)c5cc(Br)c(Br)s5)cn4C)cn3C)cn2C)cc1C(=O)NCCC(=O)NCCCCN [Id-8] | +++ (+++ = MIC ≦4)
13 | Cn1cc(NC(=O)c2cc(NC(=O)CCNC(=O)c3cc(NC(=O)c4cc(NC(=O)c5cc(Br)c(Br)s5)cn4C)cn3C)cn2C)cc1C(=O)NCCC(=O)NCCCN [Id-9] | +++ (+++ = MIC ≦4)
14 | CN(C)CCN(C)C(=O)CCNC(=O)c1cc(NC(=O)c2cc(NC(=O)CCNC(=O)c3cc(NC(=O)c4cc(NC(=O)c5cc(Br)c(Br)s5)cn4C)cn3C)cn2C)cn1C [Id-10] | +++ (+++ = MIC ≦4)
15 | CCNCCNC(=O)CCNC(=O)c1cc(NC(=O)c2cc(NC(=O)CCNC(=O)c3cc(NC(=O)c4cc(NC(=O)c5cc(Br)c(Br)s5)cn4C)cn3C)cn2C)cn1C [Id-12] | +++ (+++ = MIC ≦4)
16 | CN(C)CCCNC(=O)CCNC(=O)c1cc(NC(=O)c2cc(NC(=O)CCNC(=O)c3cc(NC(=O)c4cc(NC(=O)c5sc(Br)c(Br)c5Cl)cn4C)cn3C)cn2C)cn1C [Id-26] | + (+ = MIC from 12 to 32, inclusive)
17 | CN(C)CCCNC(=O)CCNC(=O)c1cc(NC(=O)c2cc(NC(=O)CCNC(=O)c3cc(NC(=O)c4cscc4Cl)cn3C)cn2C)cn1C [Id-28] | +++ (+++ = MIC ≦4)
18 | CN(C)CCCNC(=O)CCNC(=O)c1cc(NC(=O)c2cc(NC(=O)CCNC(=O)c3cc(NC(=O)c4ccc(Cl)s4)cn3C)cn2C)cn1C [Id-29] | >32 µg/mL
19 | Cn1cc(NC(=O)c2cc(NC(=O)c3cc(NC(=O)c4sccc4Br)cn3C)cn2C)cc1C(=O)NCCN1CCOCC1 [Ie-2] | +++ (+++ = MIC ≦4)
20 | Cn1cc(NC(=O)c2cc(NC(=O)c3cc(NC(=O)c4cc(Br)cs4)cn3C)cn2C)cc1C(=O)NCCN1CCOCC1 [Ie-3] | +++ (+++ = MIC ≦4)
21 | Cn1cc(NC(=O)c2cc(NC(=O)c3cc(NC(=O)c4sccc4Cl)cs3)cn2C)cc1C(=O)NCCN1CCOCC1 [Ig-1] | ++ (++ = MIC between 4 and 12)
22 | Cn1cc(NC(=O)c2cc(NC(=O)c3cc(NC(=O)c4sccc4Cl)cn3CCCO)cn2C)cc1C(=O)NCCC(=O)NCCN1CCOCC1 [Ig-2] | >32 µg/mL

Tested on: E. faecalis ATCC 29212
Assay: NCCLS broth microdilution MIC
Assay type: cell-based, Enterococcus faecalis
Conditions: B = E. faecalis ATCC 29212
Protocol: as §1

Row | Structure (SMILES) | Minimum Inhibitory Concentration (MIC)
23 | Cn1cc(NC(=O)c2cc(NC(=O)CCNC(=O)c3cc(NC(=O)c4cc(NC(=O)c5cc(Br)c(Br)s5)cn4C)cn3C)cn2C)cc1C(=O)NCCC(=O)NCCCCN [Id-8] | +++ (+++ = MIC ≦4)
24 | Cn1cc(NC(=O)c2cc(NC(=O)CCNC(=O)c3cc(NC(=O)c4cc(NC(=O)c5cc(Br)c(Br)s5)cn4C)cn3C)cn2C)cc1C(=O)NCCC(=O)NCCCN [Id-9] | +++ (+++ = MIC ≦4)
25 | CN(C)CCN(C)C(=O)CCNC(=O)c1cc(NC(=O)c2cc(NC(=O)CCNC(=O)c3cc(NC(=O)c4cc(NC(=O)c5cc(Br)c(Br)s5)cn4C)cn3C)cn2C)cn1C [Id-10] | >32 µg/mL
26 | CCNCCNC(=O)CCNC(=O)c1cc(NC(=O)c2cc(NC(=O)CCNC(=O)c3cc(NC(=O)c4cc(NC(=O)c5cc(Br)c(Br)s5)cn4C)cn3C)cn2C)cn1C [Id-12] | +++ (+++ = MIC ≦4)
27 | CN(C)CCCNC(=O)CCNC(=O)c1cc(NC(=O)c2cc(NC(=O)CCNC(=O)c3cc(NC(=O)c4cc(NC(=O)c5sc(Br)c(Br)c5Cl)cn4C)cn3C)cn2C)cn1C [Id-26] | >32 µg/mL
28 | CN(C)CCCNC(=O)CCNC(=O)c1cc(NC(=O)c2cc(NC(=O)CCNC(=O)c3cc(NC(=O)c4cscc4Cl)cn3C)cn2C)cn1C [Id-28] | + (+ = MIC from 12 to 32, inclusive)
29 | CN(C)CCCNC(=O)CCNC(=O)c1cc(NC(=O)c2cc(NC(=O)CCNC(=O)c3cc(NC(=O)c4ccc(Cl)s4)cn3C)cn2C)cn1C [Id-29] | >32 µg/mL
30 | Cn1cc(NC(=O)c2cc(NC(=O)c3cc(NC(=O)c4sccc4Br)cn3C)cn2C)cc1C(=O)NCCN1CCOCC1 [Ie-2] | +++ (+++ = MIC ≦4)
31 | Cn1cc(NC(=O)c2cc(NC(=O)c3cc(NC(=O)c4cc(Br)cs4)cn3C)cn2C)cc1C(=O)NCCN1CCOCC1 [Ie-3] | >32 µg/mL
32 | Cn1cc(NC(=O)c2cc(NC(=O)c3cc(NC(=O)c4sccc4Cl)cs3)cn2C)cc1C(=O)NCCN1CCOCC1 [Ig-1] | +++ (+++ = MIC ≦4)
33 | Cn1cc(NC(=O)c2cc(NC(=O)c3cc(NC(=O)c4sccc4Cl)cn3CCCO)cn2C)cc1C(=O)NCCC(=O)NCCN1CCOCC1 [Ig-2] | >32 µg/mL

Tested on: C. albicans ATCC 38247
Assay: NCCLS broth microdilution MIC (antifungal)
Assay type: cell-based
Conditions: E = C. albicans ATCC 38247
Protocol: as §1

Row | Structure (SMILES) | Minimum Inhibitory Concentration (MIC) [µg/mL]
34 | Cn1cc(NC(=O)c2cc(NC(=O)CCNC(=O)c3cc(NC(=O)c4cc(NC(=O)c5cc(Br)c(Br)s5)cn4C)cn3C)cn2C)cc1C(=O)NCCC(=O)NCCCCN [Id-8] | >32
35 | Cn1cc(NC(=O)c2cc(NC(=O)CCNC(=O)c3cc(NC(=O)c4cc(NC(=O)c5cc(Br)c(Br)s5)cn4C)cn3C)cn2C)cc1C(=O)NCCC(=O)NCCCN [Id-9] | >32
36 | CN(C)CCN(C)C(=O)CCNC(=O)c1cc(NC(=O)c2cc(NC(=O)CCNC(=O)c3cc(NC(=O)c4cc(NC(=O)c5cc(Br)c(Br)s5)cn4C)cn3C)cn2C)cn1C [Id-10] | >32
37 | CCNCCNC(=O)CCNC(=O)c1cc(NC(=O)c2cc(NC(=O)CCNC(=O)c3cc(NC(=O)c4cc(NC(=O)c5cc(Br)c(Br)s5)cn4C)cn3C)cn2C)cn1C [Id-12] | >32
38 | CN(C)CCCNC(=O)CCNC(=O)c1cc(NC(=O)c2cc(NC(=O)CCNC(=O)c3cc(NC(=O)c4cc(NC(=O)c5sc(Br)c(Br)c5Cl)cn4C)cn3C)cn2C)cn1C [Id-26] | >32
39 | CN(C)CCCNC(=O)CCNC(=O)c1cc(NC(=O)c2cc(NC(=O)CCNC(=O)c3cc(NC(=O)c4cscc4Cl)cn3C)cn2C)cn1C [Id-28] | >32
40 | CN(C)CCCNC(=O)CCNC(=O)c1cc(NC(=O)c2cc(NC(=O)CCNC(=O)c3cc(NC(=O)c4ccc(Cl)s4)cn3C)cn2C)cn1C [Id-29] | >32
41 | Cn1cc(NC(=O)c2cc(NC(=O)c3cc(NC(=O)c4sccc4Br)cn3C)cn2C)cc1C(=O)NCCN1CCOCC1 [Ie-2] | >32
42 | Cn1cc(NC(=O)c2cc(NC(=O)c3cc(NC(=O)c4cc(Br)cs4)cn3C)cn2C)cc1C(=O)NCCN1CCOCC1 [Ie-3] | >32
43 | Cn1cc(NC(=O)c2cc(NC(=O)c3cc(NC(=O)c4sccc4Cl)cs3)cn2C)cc1C(=O)NCCN1CCOCC1 [Ig-1] | >32
44 | Cn1cc(NC(=O)c2cc(NC(=O)c3cc(NC(=O)c4sccc4Cl)cn3CCCO)cn2C)cc1C(=O)NCCC(=O)NCCN1CCOCC1 [Ig-2] | >32

Tested on: E. coli ATCC 25922
Assay: NCCLS broth microdilution MIC
Assay type: cell-based
Conditions: D = E. coli ATCC 25922
Protocol: as §1

Row | Structure (SMILES) | Minimum Inhibitory Concentration (MIC) [µg/mL]
45 | Cn1cc(NC(=O)c2cc(NC(=O)CCNC(=O)c3cc(NC(=O)c4cc(NC(=O)c5cc(Br)c(Br)s5)cn4C)cn3C)cn2C)cc1C(=O)NCCC(=O)NCCCCN [Id-8] | >32
46 | Cn1cc(NC(=O)c2cc(NC(=O)CCNC(=O)c3cc(NC(=O)c4cc(NC(=O)c5cc(Br)c(Br)s5)cn4C)cn3C)cn2C)cc1C(=O)NCCC(=O)NCCCN [Id-9] | >32
47 | CN(C)CCN(C)C(=O)CCNC(=O)c1cc(NC(=O)c2cc(NC(=O)CCNC(=O)c3cc(NC(=O)c4cc(NC(=O)c5cc(Br)c(Br)s5)cn4C)cn3C)cn2C)cn1C [Id-10] | >32
48 | CCNCCNC(=O)CCNC(=O)c1cc(NC(=O)c2cc(NC(=O)CCNC(=O)c3cc(NC(=O)c4cc(NC(=O)c5cc(Br)c(Br)s5)cn4C)cn3C)cn2C)cn1C [Id-12] | >32

Tested on: B. cereus ATCC 11778
Assay: NCCLS broth microdilution MIC
Assay type: cell-based, Bacillus cereus
Conditions: C = B. cereus ATCC 11778
Protocol: as §1

Row | Structure (SMILES) | Minimum Inhibitory Concentration (MIC)
49 | Cn1cc(NC(=O)c2cc(NC(=O)CCNC(=O)c3cc(NC(=O)c4cc(NC(=O)c5cc(Br)c(Br)s5)cn4C)cn3C)cn2C)cc1C(=O)NCCC(=O)NCCCCN [Id-8] | >32 µg/mL
50 | Cn1cc(NC(=O)c2cc(NC(=O)CCNC(=O)c3cc(NC(=O)c4cc(NC(=O)c5cc(Br)c(Br)s5)cn4C)cn3C)cn2C)cc1C(=O)NCCC(=O)NCCCN [Id-9] | +++ (+++ = MIC ≦4)
51 | CN(C)CCN(C)C(=O)CCNC(=O)c1cc(NC(=O)c2cc(NC(=O)CCNC(=O)c3cc(NC(=O)c4cc(NC(=O)c5cc(Br)c(Br)s5)cn4C)cn3C)cn2C)cn1C [Id-10] | >32 µg/mL
52 | CCNCCNC(=O)CCNC(=O)c1cc(NC(=O)c2cc(NC(=O)CCNC(=O)c3cc(NC(=O)c4cc(NC(=O)c5cc(Br)c(Br)s5)cn4C)cn3C)cn2C)cn1C [Id-12] | +++ (+++ = MIC ≦4)

— patent publication US20060287247A1, “Halogen-substituted thienyl compounds” (priority 2001, published 2006)
